According to US12110305B2, “Prodrugs of phosphonamide nucleotide analogues and their pharmaceutical use” (priority 2020, dated 2024):

System: HIV-1 (IIIB)
Test: Antiviral (HIV) assay in MT-4 cells
Format: cell-based
Details: Human immunodeficiency virus 1, MT4, 120 h; HIV-1 IIIB in MT-4 cells, 5 days incubation, Cell Titer Glo; average of at least two independent experiments
Experimental: Example 104: Antiviral (HIV) Assay in MT-4 Cells
Compounds were tested in a high-throughput 384-well assay format for their ability to inhibit the replication of HIV-1 (IIIB) in MT-4 cells. Compounds were serially diluted (1:3) in DMSO on 384-well polypropylene plates and further diluted 200-fold into complete RPMI media (10% FBS, 1% P/S) using the Biotek Micro Flow and Labcyte ECHO acoustic dispenser. Each plate contained up to 8 test compounds, with negative (no drug) and positive (5 μM AZT) controls. MT-4 cells were pre-treated with 10 μL of either RPMI (mock-infected) or a fresh 1:250 dilution of HIV-1 IIIB concentrated virus stock. Infected and uninfected MT-4 cells were further diluted in complete RPMI media and added to each plate using a Micro Flow dispenser. After 5 days incubation in a humidified and temperature-controlled incubator (37° C.), Cell Titer Glo (Promega) was added to the assay plates and chemiluminescence read using an Envision plate-reader. EC50 values were defined as the compound concentration that causes a 50% decrease in luminescence signal and were calculated using a sigmoidal dose-response model to generate curve fits and are shown in Table 1.

With `C[C@H](Cn1cnc2c(N)ncnc21)OCP(=O)(NC(C)(C)C(=O)OCCCCC(F)(F)F)NC(C)(C)C(=O)OCCCCC(F)(F)F` [Example 25, Bis(5,5,5-trifluoropentyl) 2,2′-(((((1-(6-amino-9H-purin-9-yl)propan-2-yl)oxy)methyl)phosphoryl)bis(azanediyl))(R)-bis(2-methylpropanoate)] the EC50 was 8 nM.
In the case of `C[C@H](Cn1cnc2c(N)ncnc21)OCP(=O)(NC(C)(C)C(=O)O[C@H]1C[C@H](C(F)(F)F)C1)NC(C)(C)C(=O)O[C@H]1C[C@H](C(F)(F)F)C1` [Example 26, Bis(trans-3-(trifluoromethyl)cyclobutyl) 2,2′-((((((R)-1-(6-amino-9H-purin-9-yl)propan-2-yl)oxy)methyl)phosphoryl)bis(azanediyl))bis(2-methylpropanoate)], the EC50 is reported as 6 nM.
Molecule `CCC[C@H]1CC[C@H](OC(=O)C(C)(C)NP(=O)(CO[C@H](C)Cn2cnc3c(N)ncnc32)NC(C)(C)C(=O)O[C@H]2CC[C@H](CCC)CC2)CC1` [Example 27] has an EC50 of 26 nM.
For `CCCCCCOC(=O)C(C)(C)NP(=O)(CO[C@H](C)Cn1cnc2c(NC(C)=O)ncnc21)NC(C)(C)C(=O)OCCCCCC` [Example 28, Dihexyl 2,2′-(((((1-(6-acetamido-9H-purin-9-yl)propan-2-yl)oxy)methyl)phosphoryl)bis(azanediyl))(R)-bis(2-methylpropanoate)], the EC50 was 65 nM.
Molecule `CCCCCCOC(=O)C(C)(C)NP(=O)(CO[C@H](C)Cn1cnc2c(NC(=O)CCC)ncnc21)NC(C)(C)C(=O)OCCCCCC` [Example 29, Dihexyl 2,2′-(((((1-(6-butyramido-9H-purin-9-yl)propan-2-yl)oxy)methyl)phosphoryl)bis(azanediyl))(R)-bis(2-methylpropanoate)] has an EC50 of 16 nM.
In the case of `CCCCCCCCCCCC(=O)Nc1ncnc2c1ncn2C[C@@H](C)OCP(=O)(NC(C)(C)C(=O)OCCCCCC)NC(C)(C)C(=O)OCCCCCC` [Example 30, Dihexyl 2,2′-(((((1-(6-dodecanamido-9H-purin-9-yl)propan-2-yl)oxy)methyl)phosphoryl)bis(azanediyl))(R)-bis(2-methylpropanoate)], the EC50 is reported as 68 nM.
`CCCCCCOC(=O)C(C)(C)NP(=O)(CO[C@H](C)Cn1cnc2c(NC(=O)OCCC)ncnc21)NC(C)(C)C(=O)OCCCCCC` [Example 31, Dihexyl 2,2′-(((((1-(6-((propoxycarbonyl)amino)-9H-purin-9-yl)propan-2-yl)oxy)methyl)phosphoryl)bis(azanediyl))(R)-bis(2-methylpropanoate)] was tested, and the EC50 was greater than 500 nM.
Molecule `CCCCCCOC(=O)C(C)(C)NP(=O)(CO[C@H](C)Cn1cnc2c(NC(=O)OCCCCC)ncnc21)NC(C)(C)C(=O)OCCCCCC` [Example 32, Dihexyl 2,2′-(((((1-(6-(((pentyloxy)carbonyl)amino)-9H-purin-9-yl)propan-2-yl)oxy)methyl)phosphoryl)bis(azanediyl))(R)-bis(2-methylpropanoate)] has an EC50 greater than 500 nM.
With `CCCCCCOC(=O)C(C)(C)NP(=O)(CO[C@H](C)Cn1cnc2c(NC(=O)OCc3oc(=O)oc3C)ncnc21)NC(C)(C)C(=O)OCCCCCC` [Example 33, Dihexyl 2,2′-(((((1-(6-((((5-methyl-2-oxo-1,3-dioxol-4-yl)methoxy)carbonyl)amino)-9H-purin-9-yl)propan-2-yl)oxy)methyl)phosphoryl)bis(azanediyl))(R)-bis(2-methylpropanoate)] the EC50 was 7 nM.
Work on `C[C@H](Cn1cnc2c(N)ncnc21)OCP(=O)(NC(C)(C)C(=O)OC1CCCC1)NC(C)(C)C(=O)OC1CCCC1` [Example 34, Dicyclopentyl 2,2′-(((((1-(6-amino-9H-purin-9-yl)propan-2-yl)oxy)methyl)phosphoryl)bis(azanediyl))(R)-bis(2-methylpropanoate)] yielded an EC50 of 3 nM.
Work on `CC(C)COC(=O)C(C)(C)NP(=O)(CO[C@H](C)Cn1cnc2c(N)ncnc21)NC(C)(C)C(=O)OCC(C)C` [Example 35, Diisobutyl 2,2′-(((((1-(6-amino-9H-purin-9-yl)propan-2-yl)oxy)methyl)phosphoryl)bis(azanediyl))(R)-bis(2-methylpropanoate)] yielded an EC50 of 5 nM.
`CCCOC(=O)C(C)(C)NP(=O)(CO[C@H](C)Cn1cnc2c(N)ncnc21)NC(C)(C)C(=O)OCCC` [Example 36, Dipropyl 2,2′-(((((1-(6-amino-9H-purin-9-yl)propan-2-yl)oxy)methyl)phosphoryl)bis(azanediyl))(R)-bis(2-methylpropanoate)] gave an EC50 of 14 nM.
`C[C@H](Cn1cnc2c(N)ncnc21)OCP(=O)(NC(C)(C)C(=O)OCC1CCC1)NC(C)(C)C(=O)OCC1CCC1` [Example 37, Bis(cyclobutylmethyl) 2,2′-(((((1-(6-amino-9H-purin-9-yl)propan-2-yl)oxy)methyl)phosphoryl)bis(azanediyl))(R)-bis(2-methylpropanoate)] showed an EC50 of 4 nM.
`CCCCOC(=O)C(C)(C)NP(=O)(CO[C@H](C)Cn1cnc2c(N)ncnc21)NC(C)(C)C(=O)OCCCC` [Example 38, Dibutyl 2,2′-(((((1-(6-amino-9H-purin-9-yl)propan-2-yl)oxy)methyl)phosphoryl)bis(azanediyl))(R)-bis(2-methylpropanoate)] showed an EC50 of 10 nM.
In the case of `CCCCCCCCOC(=O)C(C)(C)NP(=O)(CO[C@H](C)Cn1cnc2c(N)ncnc21)NC(C)(C)C(=O)OCCCCCCCC` [Example 39, Dioctyl 2,2′-(((((1-(6-amino-9H-purin-9-yl)propan-2-yl)oxy)methyl)phosphoryl)bis(azanediyl))(R)-bis(2-methylpropanoate)], the EC50 is reported as 24 nM.
`C[C@H](Cn1cnc2c(N)ncnc21)OCP(=O)(NC(C)(C)C(=O)OC1CCCCC1)NC(C)(C)C(=O)OC1CCCCC1` [Example 40, Dicyclohexyl 2,2′-(((((1-(6-amino-9H-purin-9-yl)propan-2-yl)oxy)methyl)phosphoryl)bis(azanediyl))(R)-bis(2-methylpropanoate)] gave an EC50 of 6 nM.
In the case of `C[C@H](Cn1cnc2c(N)ncnc21)OCP(=O)(NC(C)(C)C(=O)OC1CC2(CCC2)C1)NC(C)(C)C(=O)OC1CC2(CCC2)C1` (stereo partly drawn) [Example 41, Di(spiro[3.3]heptan-2-yl) 2,2′-(((((1-(6-amino-9H-purin-9-yl)propan-2-yl)oxy)methyl)phosphoryl)bis(azanediyl))(R)-bis(2-methylpropanoate)], the EC50 is reported as 3 nM.
Work on `C[C@H](Cn1cnc2c(N)ncnc21)OCP(=O)(NC(C)(C)C(=O)OC1CC(C)(C)C1)NC(C)(C)C(=O)OC1CC(C)(C)C1` [Example 42, Bis(3,3-dimethylcyclobutyl) 2,2′-(((((1-(6-amino-9H-purin-9-yl)propan-2-yl)oxy)methyl)phosphoryl)bis(azanediyl))(R)-bis(2-methylpropanoate)] yielded an EC50 of 2 nM.
For `CC(C)OC(=O)C(C)(C)NP(=O)(CO[C@H](C)Cn1cnc2c(N)ncnc21)NC(C)(C)C(=O)OC(C)C` [Example 43, Diisopropyl 2,2′-(((((1-(6-amino-9H-purin-9-yl)propan-2-yl)oxy)methyl)phosphoryl)bis(azanediyl))(R)-bis(2-methylpropanoate)], the EC50 was 20 nM.
With `C[C@H](Cn1cnc2c(N)ncnc21)OCP(=O)(NC(C)(C)C(=O)OC1CCC(C)(C)CC1)NC(C)(C)C(=O)OC1CCC(C)(C)CC1` [Example 44, Bis(4,4-dimethylcyclohexyl) 2,2′-(((((1-(6-amino-9H-purin-9-yl)propan-2-yl)oxy)methyl)phosphoryl)bis(azanediyl))(R)-bis(2-methylpropanoate)] the EC50 was 7 nM.
In the case of `C[C@H](Cn1cnc2c(N)ncnc21)OCP(=O)(NC(C)(C)C(=O)OCC1CCCC1)NC(C)(C)C(=O)OCC1CCCC1` [Example 45, Bis(cyclopentylmethyl) 2,2′-(((((1-(6-amino-9H-purin-9-yl)propan-2-yl)oxy)methyl)phosphoryl)bis(azanediyl))(R)-bis(2-methylpropanoate)], the EC50 is reported as 3 nM.
In the case of `C[C@H](Cn1cnc2c(N)ncnc21)OCP(=O)(NC(C)(C)C(=O)OCC1CCCCC1)NC(C)(C)C(=O)OCC1CCCCC1` [Example 46, Bis(cyclohexylmethyl) 2,2′-(((((1-(6-amino-9H-purin-9-yl)propan-2-yl)oxy)methyl)phosphoryl)bis(azanediyl))(R)-bis(2-methylpropanoate)], the EC50 is reported as 5 nM.
Work on `C[C@H](Cn1cnc2c(N)ncnc21)OCP(=O)(NC(C)(C)C(=O)OC1CCC1)NC(C)(C)C(=O)OC1CCC1` [Example 47, Dicyclobutyl 2,2′-(((((1-(6-amino-9H-purin-9-yl)propan-2-yl)oxy)methyl)phosphoryl)bis(azanediyl))(R)-bis(2-methylpropanoate)] yielded an EC50 of 7 nM.
For `C[C@H](Cn1cnc2c(N)ncnc21)OCP(=O)(NC(C)(C)C(=O)OCC12CCC(CC1)CC2)NC(C)(C)C(=O)OCC12CCC(CC1)CC2` [Example 48, Bis(bicyclo[2.2.2]octan-1-ylmethyl) 2,2′-(((((1-(6-amino-9H-purin-9-yl)propan-2-yl)oxy)methyl)phosphoryl)bis(azanediyl))(R)-bis(2-methylpropanoate)], the EC50 was 6 nM.
For `CCC1(CC)CC(OC(=O)C(C)(C)NP(=O)(CO[C@H](C)Cn2cnc3c(N)ncnc32)NC(C)(C)C(=O)OC2CC(CC)(CC)C2)C1` [Example 49, Bis(3,3-diethylcyclobutyl) 2,2′-(((((1-(6-amino-9H-purin-9-yl)propan-2-yl)oxy)methyl)phosphoryl)bis(azanediyl))(R)-bis(2-methylpropanoate)], the EC50 was 5 nM.
